Data taken from publication PMC7689096, “Cyclizing Painkillers: Development of Backbone-Cyclic TAPS Analogs” (Frontiers in Chemistry, 2020).

Key:
[1] = Caco-2 permeability assay
[2] = biological target: T1, δ (DOP, OPRD2) opioid receptor (Mus musculus, UniProt P32300); test: DOP opioid receptor functional agonism in NG-10815 cells; type: cell-based, rat; conditions: At 10^−6 M, percent of control specific agonist response
T1 construct: NG-10815 cells which express significant endogenous levels of δ opioid receptors; host or cells: NG-10815 (NG108-15) mouse N18TG2 neuroblastoma x rat C6-BU-1 glioma hybrid cells
T1 sequence (P32300 whole entry): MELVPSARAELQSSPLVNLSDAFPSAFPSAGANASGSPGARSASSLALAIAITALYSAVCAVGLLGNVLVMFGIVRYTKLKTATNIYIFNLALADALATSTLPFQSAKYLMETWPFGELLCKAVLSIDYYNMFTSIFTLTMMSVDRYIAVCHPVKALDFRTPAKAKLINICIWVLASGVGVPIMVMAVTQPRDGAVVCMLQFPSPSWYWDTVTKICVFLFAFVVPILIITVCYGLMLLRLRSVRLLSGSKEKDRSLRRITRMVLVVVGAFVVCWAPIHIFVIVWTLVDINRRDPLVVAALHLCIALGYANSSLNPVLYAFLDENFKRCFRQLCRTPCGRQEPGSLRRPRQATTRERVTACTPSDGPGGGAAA
Method: Peptides were tested for μ (MOP, OPRM1) and δ (DOP, OPRD2) opioid receptor activation functional agonism and antagonism using CHO cells expressing human recombinant μ receptors and NG-10815 cells which express significant endogenous levels of δ opioid receptors. The cultures were incubated for 10 min at 37°C followed by impedance measurements of CHO cells and cAMP was assayed by the HTRF method using NG-10815 cells, according to CEREP standard assay protocols. The respective reference, non-peptide small molecules were tested concurrently with the TAPS analogs. The agonist compounds were: DPDPE (selective agonist of DOP receptor) and DAMGO (high MOP receptor specificity) and the antagonist compounds were: Naltrindole (selective DOP receptor antagonist) and CTOP (MOP receptor antagonist). […] The results are expressed as a percentage of respective control-specific response. […] These findings indicate that TAPS cyclic peptides are MOP selective full agonists. […] The cyclic TAPS peptide had lower activity than the linear parent TAPS peptide (90 ± 5%) – a finding that can be attributed to their restricted conformation relative to the flexible linear peptide conformation.
Evaluation of the Agonist Activity of Compounds at the Rat delta2 Receptor Endogenously Expressed in NG-10815 Cells, Determined by Measuring Their Effects on Impedance Modulation Using the CellKey (CDS) Detection Method
Cells are seeded onto 96-well plate coated with fibronectin at 2 × 10^5 cells/well in HBSS buffer (Invitrogen) + 20 mM HEPES (Invitrogen) with 0.1% BSA and allowed to equilibrate for 60 min at 37°C before the start of the experiment. Plates are placed onto the system and measurements are made at a temperature of 37°C. […] Impedance measurements are monitored for 10 min after ligand addition. The standard reference agonist is DPDPE, which is tested in each experiment at several concentrations to generate a concentration-response curve from which its EC50 value is calculated.
The respective reference, non-peptide small molecules were tested concurrently with the TAPS analogs; Agonist compounds DPDPE ([D-Pen2,D-Pen5]enkephalin), selective agonist of DOP receptor at 2 × 10^−9 M and DAMGO ([D-Ala2, N-MePhe4, Gly-ol] enkephalin), high MOP specificity at 2.5 × 10^−9 M; Antagonist compounds: naltrindole 7-(cyclopropylmethyl)-6,7-dehydro-4,5α-epoxy-3,14-dihydroxy-6,7-2′,3′-indolomorphinan hydrochloride, selective DOP antagonist, 5 × 10^−10 M and CTOP (D-Phe-Cys-Tyr-D-Trp-Orn-Thr-Pen-Thr-NH2), MOP antagonist at 3.4 × 10^−7 M. Depending on the assay volume and solvent tolerance, the stock solutions were diluted to [100×], [333×] or [1,000×] in 100% DMEM solvent, then either added directly or further diluted to [10×] or [5×] in H2O or Hank's balanced salt solution (HBSS) before addition to the assay well (final solvent concentration kept constant). The cultures were incubated for 10 min at 37°C followed by impedance measurements using cellular dielectric spectroscopy of CHO cells and cAMP was assayed by homogeneous time resolved fluorescence (HTRF) method using NG-10815 cells, according to CEREP standard assay protocols (https://euroscreenfast.com/assays/opioid-orl1-camp-fast-0360c; https://euroscreenfast.com/assays/opioid-op1-delta-camp-fast-0379c). […]

N=C(N)NCCC[C@@H]1C(=O)N[C@@H](Cc2ccccc2)C(=O)N(CC(N)=O)CCNC(=O)NCCCCCCN1C(=O)[C@@H](N)Cc1ccc(O)cc1 [TAPS c(2-6)]
Papp [1]: 11 ×10⁻⁶ cm/s
Papp A→B [1]: 0.038 ×10⁻⁶ cm/s
Papp B→A [1]: 0.05 ×10⁻⁶ cm/s
DOP agonist (%) [2]: 11%
